Data: patent US20070009437A1, “Intracellular trapping of radionuclides by enzyme-mediated reduction” (priority 2003, published 2007)

Legend:
[1] = system: D. desulfuricans hydrogenase HydA/HydB (pETDuet/HydA/HydB) in E. coli BL21(DE3) Star; assay: Tc99m O4- reduction assay, bacteria with pETDuet/HydA/HydB; type: cell-based, Desulfovibrio desulfuricans; conditions: for Counts Per Minute, cell pellet, HYDA/B: 15 mCi, aerobic
Excerpt: (§1) Bacterial expression vectors were designed following standard molecular biology techniques. D. desulfuricans hydrogenase genes, Hyd A and Hyd B were PCR amplified using primers incorporated with unique restriction sites at the ends. The genes were inserted into pET-Duet1 (Novagen) vector under T7 RNA polymerase driven promoter through sequential restriction digestion and ligation. Periplasmic signal sequences were extracted from vectors pET-39b and pET-40b (Novagen) and ligated in-frame with start codon deficient Hydrogenase genes. Mammalian expression vectors were designed with mitochondrial signal sequences from pCMV/myc/mito, fused in frame by PCR amplification and ligation with both HydA and HydB genes. Additionally, the myc epitope was added in-frame at the C-terminus to facilitate subcellular localization and immunoprecipations.
(§2) E. coli BL21(DE3) Star (Invitrogen) was transformed with various constructs and grown on the appropriate selective media agars. In case of periplasmic fusion hydrogenases, dual co-transformation was accomplished using antibiotic selection markers, ampicillin and chloramphenicol. Transformed cells were grown at 37° C. in a standard laboratory shaker under aerobic conditions to an optical density at 600 nm (O.D.600) of 0.6 and then induced with 1 mM IPTG under a standard T7 promoter induction protocol. One ml aliquots of cells were collected at 0, 1, 2, and 3 hour time points following induction and mRNA was extracted using a bacterial mRNA extraction mini kit (Qiagen). 100 ng of the mRNA samples was DNAse treated (Invitrogen) according to the manufacturer's protocol. RNA quality was then analyzed using an Agilent 2100 Bioanalyzer, prokaryotic total RNA nano-chip. RT-PCR reactions were performed using the internal specific primers for HydA, Forward: 5′-[…] (SEQ ID NO:8); Reverse: 5′-[…] (SEQ ID NO:9) and Hyd B, Forward: 5′-[…] (SEQ ID NO:10), Reverse 5′-[…] (SEQ ID NO:11) and one step RT-PCR kit (Qiagen).
(§3) Tc99m O4—reduction assays were performed as follows: Bacterial cultures were grown to an O.D.600 of 0.6 in a simple rotary shaker under aerobic conditions. HydA and HydB genes were induced with 1 mM IPTG in the presence of 15 mCi of 99mTc Pertechnetate and ten ml aliquots of bacterial cultures were collected at 0, 1, 2, and 3 hr time points. The cells were spun down at 3500 rpm for 15 min, washed twice with 5 ml phosphate buffered saline (PBS) and the supernatant was collected and saved for later analysis. Control bacteria transformed with Duet vectors only were treated as controls. Total counts in the total cell pellet, 100 μl of media supernatant, and 1 ml of each wash, were then assayed using a gamma counter. Ten microliters of 99mTc pertechnetate was assayed to provide internal control between experiments.
(§4) In FIG. 12, the amount of radioactivity recorded in counts per minute was divided by the total number of counts expected per 10 ml of culture. The experimental values were determined by subtracting the control bacterial normalized CPM from the normalized CPM from the hydrogenase vector(s) transformed bacteria. The values obtained were therefore normalized counts per minute for the different cell lines.

[2] = system: E. coli BL21(DE3) Star transformed with pET-Duet + pACYCDuet (control); assay: Tc99m O4- reduction assay, control bacteria with Duet vectors only; type: cell-based, Escherichia coli; conditions: 15 mCi, aerobic
Experimental: as §2, §3, §4

[3] = system: DsbA-HydA + DsbC-HydB (pACYC-DsbA-HydA + pETDuet/DsbC-HydB) in E. coli BL21(DE3) Star; assay: Tc99m O4- reduction assay, bacteria with both periplasmic Dsb fusion vectors; type: cell-based, Desulfovibrio desulfuricans; conditions: for Counts Per Minute, cell pellet, DSB FUSIONS: 15 mCi, aerobic
Excerpt: as §1, §2, §3, §4
(§5) However, this increase was negligible when compared to cells containing both HydA and HydB in separate (individual) Dsb fusion vector constructs.

[4] = system: T. vaginalis (ATCC No. 30001); assay: Trapping of Tc99m pertechnetate in Trichomonas vaginalis (intracellular radioactivity, gamma counter); type: cell-based; conditions: 2 μCi, 37° C., 2×10^6 cells per tube, washed pellet
Experimental: T. vaginalis (ATCC No. 30001) was cultured in ATCC LYI entamoeba medium (ATCC No. PRA-2154) at 37° C. in test tubes to a titer of 2×10^6 cells per tube. Three test tubes were included in each group. T. vaginalis cells were incubated at 37° C. for a period of time after inoculation of 2 μci of Technetium 99m pertechnetate in each test tube. At end of incubation, the cells were harvested by centrifugation at […], for 10 minutes. The cellular pellet was washed three times with PBS to remove extra-cellular radioactivity. Intracellular radioactivity of the cells was counted with a gamma counter.

[5] = system: DsbC-HydB fusion (pETDuet/DsbC-HydB alone) in E. coli BL21(DE3) Star; assay: Tc99m O4- reduction assay, bacteria with pETDuet/DsbC-HydB alone; type: cell-based, Desulfovibrio desulfuricans; conditions: for Counts Per Minute, cell pellet, FB: 15 mCi, aerobic
Excerpt: as §1, §2, §3, §4, §5

[6] = system: DsbA-HydA fusion (pACYC-DsbA-HydA alone) in E. coli BL21(DE3) Star; assay: Tc99m O4- reduction assay, bacteria with pACYC-DsbA-HydA alone; type: cell-based, Desulfovibrio desulfuricans; conditions: 15 mCi, aerobic
Excerpt: as §1, §2
Tc99m O4—reduction assays were performed as follows: Bacterial cultures were grown to an O.D.600 of 0.6 in a simple rotary shaker under aerobic conditions. HydA and HydB genes were induced with 1 mM IPTG in the presence of 15 mCi of 99mTc Pertechnetate and ten ml aliquots of bacterial cultures were collected at 0, 1, 2, and 3 hr time points. The cells were spun down at 3500 rpm for 15 min, washed twice with 5 ml phosphate buffered saline (PBS) and the supernatant was collected and saved for later analysis. […]
as §4, with “The values obtained were therefore normalized counts per minute for the different cell lines.” left out

For [O]=[99Tc](=[O])(=[O])[O-] [Technetium 99m pertechnetate], the “Counts Per Minute, cell pellet, HYDA/B” value ([1]; 0 hr after 1 mM IPTG induction) was 2074 cpm, the “Counts Per Minute, cell pellet, HYDA/B” value ([1]; 1 hr after 1 mM IPTG induction) was 5543 cpm and the “Counts Per Minute, cell pellet, HYDA/B” value ([1]; 2 hr after 1 mM IPTG induction) was 8031 cpm. The “Counts Per Minute, cell pellet, HYDA/B” value ([1]; 3 hr after 1 mM IPTG induction) was 12339 cpm, the “trapping in vitro as compared to control cells” value ([1]; bacteria overexpressing HydA and HydB genes) was “significantly higher trapping” and the “radioactivity within cells relative to control cells” value ([1]; pETDuet1/HydA/HydB vector vs pET-Duet+PAcYCDuet vector) was “noticeable increase in radioactivity”. For the same compound, the “Counts Per Minute, cell pellet, D + P (control)” value ([2]; 0 hr after 1 mM IPTG induction) was 2777 cpm, the “Counts Per Minute, cell pellet, D + P (control)” value ([2]; 1 hr after 1 mM IPTG induction) was 6939 cpm and the “Counts Per Minute, cell pellet, D + P (control)” value ([2]; 2 hr after 1 mM IPTG induction) was 10045 cpm. For the same compound, the “Counts Per Minute, cell pellet, D + P (control)” value ([2]; 3 hr after 1 mM IPTG induction) was 11944 cpm, the “Counts Per Minute, cell pellet, DSB FUSIONS” value ([3]; 0 hr after 1 mM IPTG induction) was 4185 cpm and the “Counts Per Minute, cell pellet, DSB FUSIONS” value ([3]; 1 hr after 1 mM IPTG induction) was 38129 cpm. The “Counts Per Minute, cell pellet, DSB FUSIONS” value ([3]; 2 hr after 1 mM IPTG induction) was 80021 cpm, the “Counts Per Minute, cell pellet, DSB FUSIONS” value ([3]; 3 hr after 1 mM IPTG induction) was 56611 cpm and the “99mTc association with the bacteria” value ([3]; DsbA and DsbC ligated in fusion to Hyd A and Hyd B) was “increased 99mTc association with the bacteria”. The “RADIOACTIVITY (dpm) in T. vaginalis” value ([4]; incubation 30 minutes) was 24904 dpm, the “RADIOACTIVITY (dpm) in T. vaginalis” value ([4]; incubation 45 minutes) was 45127 dpm and the “RADIOACTIVITY (dpm) in T. vaginalis” value ([4]; incubation 12 hours) was 1915843 dpm. The “Counts Per Minute, cell pellet, FB” value ([5]; 0 hr after 1 mM IPTG induction) was 4643 cpm, the “Counts Per Minute, cell pellet, FB” value ([5]; 1 hr after 1 mM IPTG induction) was 40064 cpm and the “Counts Per Minute, cell pellet, FB” value ([5]; 2 hr after 1 mM IPTG induction) was 55201 cpm. For the same compound, the “Counts Per Minute, cell pellet, FB” value ([5]; 3 hr after 1 mM IPTG induction) was 77462 cpm, the “entrapment of radionuclide by cells” value ([5]; Hyd B-Dsb fusion alone vs both fusion hydrogenase products together) was “higher than that of both fusion hydrogenase products together” and the “Counts Per Minute, cell pellet, FA” value ([6]; 0 hr after 1 mM IPTG induction) was 7074 cpm. The “Counts Per Minute, cell pellet, FA” value ([6]; 1 hr after 1 mM IPTG induction) was 8503 cpm, the “Counts Per Minute, cell pellet, FA” value ([6]; 2 hr after 1 mM IPTG induction) was 15323 cpm and the “Counts Per Minute, cell pellet, FA” value ([6]; 3 hr after 1 mM IPTG induction) was 23935 cpm.
